Changes are numbered by the printed parent chain.
Legend:
IL1R-I13C = biological target: T1, IL1R-I13C (Homo sapiens, UniProt P14778, I30C); assay: SPR ranking of reversible covalent (disulfide) bond formation with immobilized protein-thiolate (Examples 5-6); assay type: binding; conditions: disulfide compound 100 μM, reductant 500 μM; fraction of protein-thiolate on the chip covalently bound
T1 construct: soluble interleukin-1 receptor, type 1 having a mutation to cysteine; made in house; host or cells: E. coli or baculovirus-infected insect cells (TN-5B1-4, High Five)
T1 sequence (P14778 18-336 I30C): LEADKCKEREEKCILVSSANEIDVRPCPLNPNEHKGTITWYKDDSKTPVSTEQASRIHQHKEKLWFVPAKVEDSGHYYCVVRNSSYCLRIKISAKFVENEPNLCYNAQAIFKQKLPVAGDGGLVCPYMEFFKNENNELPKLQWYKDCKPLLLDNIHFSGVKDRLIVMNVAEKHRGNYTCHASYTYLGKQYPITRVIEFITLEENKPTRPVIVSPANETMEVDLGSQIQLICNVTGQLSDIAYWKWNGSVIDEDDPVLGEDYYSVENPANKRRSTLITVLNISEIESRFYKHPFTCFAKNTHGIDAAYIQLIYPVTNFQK
Method: (§1) A CM5 sensor chip (Biacore-BR-1000-14) is docked in a Biacore 2000 SPR device, and the chip is normalized using a standard Biacore protocol with 70% glycerol. The chip is equilibrated in PBS for approximately 1 hr at a 20 μL/min flow rate. The dextran surface of the chip is activated through an NHS/EDC coupling. This is done using an amine coupling kit (Biacore—BR-100-50) containing N-hydroxysuccinimide (NHS 11.5 mg/mL) and N-ethyl-N′-(3-dimethylaminopropyl) carbodiimide hydrochloride (EDC 75 mg/mL). The two reagents are mixed in a 1:1 ratio and then 35 μL of the mixture are injected at 5 μL/min. The chip is activated one flow cell at a time, and that flow cell is subsequently labeled with protein.
(§2) Protein having at least one cysteine is expressed in E. coli or baculovirus-infected insect cells (TN-5B1-4, High Five) and purified using standard procedures. This protein-thiolate is treated with 10 mM βME overnight to reduce the surface cysteine. The βME is removed and the protein-thiolate is placed in 100 mM MES Buffer pH 5.75 (Nap-5 column, Pierce). The protein-thiolate is then concentrated to 100 μM using a Millipore-UFV5BCCOO 5K NMWL membrane, 0.5 mL centrifugal filter and tube.
(§3) A sensorgram is then run over the activated flow cell at 2 μL/min of PBS. The protein-thiolate solution is then injected at 2 μL/min for 10 min. After injection one measures the change in RUs by marking the RUs at t=0 and t final and subtracting them. This subtraction gives the total RU change that is related to the total mass of protein successfully coupled to the CM5 surface. This value will later be used to determine stoichiometry of binding. This procedure is then repeated with various cysteine mutants that are immobilized on the adjacent cells. The sensorgram is then altered to flow across all 4 cells on the CM5 chip at 5,L/min PBS. A solution of 1 M ethanolamine hydrochloride-NaOH pH 8.5 (Amine coupling kit, Biacore—BR-100-50) is injected at 5 μL/min for 7 min. The chip is equilibrated overnight in 100 mM Tris pH 8+0.05% azide+1% DMSO at 20 μL/min.
(§4) Compounds are synthesized with a reactive disulfide linker (see, for example compound 2t in Example 2). From previous “tethering” experiments compounds that preferentially bind and form a covalent bond with specific cysteine mutants at the active sites of proteins are chosen for these SPR experiments. The compounds are known to form this covalent attachment at relatively high levels of reductant [βME (2-mercaptoethanol, Sigma)], indicating a […] noncovalent binding interaction.
(§5) Dilutions series of the compounds are typically performed to produce seven solutions with compound concentrations of 50 mM, 25 mM, 12.5 mM, 6.25 mM, 3.12 mM, 1.56 mM, and 0.78 mM in DMSO, with a final eighth point as a DMSO only baseline. The compounds are then diluted into 100 mM Tris pH 8+0.05% azide+500 μM βME, to final compound concentrations of 500 μM, 250 μM, 125 μM, 62.5 μM, 31.2 μM, 15.6 μM, and 7.8 μM. The compound solutions are injected from lowest concentration to highest at 2 μL/min for 20 min. The SPR software method includes a 1 min wash before injection, the injection and then a 10 min wash after the injection. This particular protocol employs a regeneration step to reduce off the compound that is covalently bound before the next injection. The regeneration is accomplished by injecting 10 mM βME at 2 μL/min for 20 min.
(§6) These dilution series are analyzed by BIAevaluation software version 3.0. Sensorgrams are plotted for compound binding to cells of the chip labeled with protein-thiolate. The sensorgrams are modified by subtracting the sensorgrams for the appropriate compound dilutions over cell 1 (a blank cell). This subtraction step removes any RU changes that might occur due to nonspecific interactions between the compound and the chip itself or refractive changes in the buffer. Finally, the eight sensorgrams produced from the compound dilution series are zeroed at the average of their starting RUs. […]

IL1R-I29C = biological target: T2, IL1R-I29C (Homo sapiens, UniProt P14778); assay: as above; assay type: binding; conditions: disulfide compound 100 μM, reductant 500 μM; fraction of protein-thiolate on the chip covalently bound
T2 construct: soluble interleukin-1 receptor, type 1 having a mutation to cysteine; made in house; host or cells: E. coli or baculovirus-infected insect cells (TN-5B1-4, High Five)
T2 sequence (P14778 18-336 E146C): T1 sequence (P14778 18-336 I30C) with C13I, E129C
Method: as §1, §2, §3, §4, §5, §6

SMILES	Fraction bound IL1R-I13C (IL1R-I13C)	Fraction bound IL1R-I29C (IL1R-I29C)
CC(=O)c1ccccc1NC(=O)c1ccc(NC(=O)CSSCCN)cc1 [Compound 12t]	0.5	0.0
COC(=O)c1cccc(NC(=O)c2ccc(NC(=O)CSSCCN)cc2)c1 [Compound 13t]	0.0	0.0
NCCSSCCC(=O)NC(c1ccccc1)c1cc2ccccc2cn1 (centres unmarked) [Compound 14t]	0.0	0.6
COc1cc(C(=O)N2CCCC(C(=O)NCCSSCCN)C2)ccc1O (centres unmarked) [Compound 15t]	0.0	0.2

Reference: US20030186464A1, “Surface plasmon resonance methods” (priority 2002, published 2003)
